Reference: patent publication US7829332B2, “Purines are self-renewal signals for neural stem cells, and purine receptor antagonists promote neuronal and glial differentiation therefrom” (Cornell Research Foundation, Inc., priority 2004, dated 2010)

Legend:
Type in all cases: cell-based, mouse
neural stem cells = test: BrdU incorporation assay (mitotic index); conditions: 4 hrs incubation
Method: For the BrdU incorporation assay, the cultures were incubated for 4 hrs in BrdU (Sigma, 10 μg/ml, 4 hrs), fixed and stained with rat monoclonal anti-BrdU (MAS250C, Harlan Sera-lab, Loughborough, UK; 1:200) and Cy3-conjugated goat anti-rat antibodies (Jackson ImmunoResearch, 1:300). Nuclei were visualized by Sytox (Molecular Probes, Inc.), and the mitotic index was calculated as the ratio of BrdU/Sytox positive nuclei. Limiting dilution analysis was performed as previously described (Keyoung et al., Nature Biotechnology 19:843-850 (2001); Uchida et al., Proc. Natl. Acad. Sci. 97:14720-14725 (2000), which are hereby incorporated by reference in their entirety).
Purinergic signaling has long-term effects on proliferation of numerous cell types, including rapidly replicating transformed cell lines (Burnstock, G., Arterioscler Thromb Vasc Biol 22:364-73 (2002); Michoud et al., Am J Respir Cell Mol Biol 27:732-8 (2002); Sauer et al., J Cell Sci 115:3265-73 (2002); Tu et al., Br J Pharmacol 129:1481-9 (2000), which are hereby incorporated by reference in their entirety). To better define the mitogenic effects of P2Y on neural progenitor cells, the mitogenic effects of ATP, its analogs, and its dephosphorylated metabolites were compared. To this end, BrdU incorporation by neural stem cells was quantified after 4 hrs incubation in each treatment.

neural progenitor cells = test: Calcium imaging (fluo-4/am) of Ca2+i responses in 1-2 day cultures; conditions: for increase of Ca2+i by purine receptor agonists: 1-2 day cultures; for effect of removal of extracellular Ca2+ on the Ca2+ response to the agonist: extracellular Ca2+ removed
Method: Neuronal cultures were prepared from E16 mice and maintained as earlier described (Nedergaard, M., Science 263:1768-1771 (1994), which is hereby incorporated by reference in its entirety). Cytosine arabinoside (20 μM) was added at 48 hr to eliminate proliferating cells. Neural progenitor cells were isolated from E13 mice as previously described (Morshead et al., Neuron 13:1071-82 (1994); Reynolds et al., Science 255:1707-10 (1992), which are hereby incorporated by reference in their entirety). The forebrains were collected in a Ca/Mg-free Hank's buffered saline solution (HBSS) and dissociated in 0.25% trypsin. The cells were resuspended at 4×10^6 cells/ml in DMEM/F12/N2 containing 10 ng/ml bFGF and 10 ng/ml EGF (Sigma, St. Louis, Mo.). The cells were plated at 4 ml/dish into 100 mm suspension culture plates and incubated at 37° C. in 5% CO2. The cells were passaged 2 to 3 times before use.
To test the idea that purinergic signaling is restricted to undifferentiated neural precursor cells, Ca^2+ responses to ATP were first examined as a function of time after plating either neural stem cells or differentiated neurons. Cultured mouse cortical neurons in near-pure neuronal cultures were loaded with fluo-4/am and exposed to either ATP (100 μM) or K^+ (60 mM). […] The responses to ATP fell by day 3 and were absent 9 days after plating. […] By 30 hours after plating, MAP2-defined neurons expressed substantially less P2Y receptor-immunoreactivity than did neighboring, MAP2^− cells (FIG. 1C). By 5 days, P2Y-immunoreactivity was restricted to GFAP^+ astrocytes.
ATP-induced Ca^2+i increments were inhibited by both suramin (100 μM) and reactive blue (RB; 30 μM), two mechanistically-unrelated inhibitors of purinergic signaling (FIG. 1D).

[1] = test system: neuroepithelial cells / neural spheres; test: ATP release, luciferin-luciferase bioluminescence
Method: ATP release from living cells were dynamically imaged by chemiluminescence as described in (Arcuino et al., Proc Natl Acad Sci USA 99:9840-5 (2002), which is hereby incorporated by reference in its entirety). Neural spheres were after a light spin resuspended in Ringer's solution and mounted in a temperature controlled Leiden chamber. Luciferase (0.132 mg/ml) and luciferin (0.332 mg/ml) was added to the Ringer solution. After obtaining a baseline recording of 5 minutes duration, the cultures were stimulated by adding an equal volume of Ca^2+-free Ringer solution containing 100 μM UTP. Light production from the luciferin-luciferase reaction was imaged by a liquid nitrogen-cooled CCD camera (VersArray 1300B, Princeton Instruments), using a 20× oil lens (N.A. 0.8, Olympus), 8×8 binning, and two seconds integration. ATP content in samples collected from cultures grown in 24-well tissue culture plates was measured using a Victor2 plate reader (Wallac) (Cotrina et al., Proc. Natl. Acad. Sci. 95:15735-15740 (1998), which is hereby incorporated by reference in its entirety) and normalized to the protein content (BioRad) or to the cell number. A minimum of 8 independent experiments was evaluated (n≧8, most >20). When drugs or serum were used, the standards were adjusted to containing an equivalent amount. […]

| Molecule | proliferation (BrdU incorporation) (neural stem cells) | increase of Ca2+i by purine receptor agonists (neural progenitor cells) | further results |
| --- | --- | --- | --- |
| Nc1ncnc2c1ncn2[C@@H]1O[C@H](COP(=O)(O)OP(=O)(O)OP(O)(O)=S)[C@@H](O)[C@H]1O [γSATP, γ-thio-adenosine triphosphate] | comparable effects | increased Ca^2+i with roughly equal potency | – |
| apyrase | inhibited proliferation | – | – |
| Nc1nc(Cl)nc2c1ncn2[C@@H]1O[C@H](COP(=O)(O)OP(=O)(O)OP(=O)(O)O)[C@@H](O)[C@H]1O [2-Cl-ATP, 2-chloro-adenosine triphosphate] | comparable effects | increased Ca^2+i with roughly equal potency | – |
| Nc1ncnc2c1ncn2[C@@H]1O[C@H](CO)[C@@H](O)[C@H]1O [adenosine] | failed to stimulate proliferation | – | – |
| CSc1nc(N)c2ncn([C@@H]3O[C@H](COP(=O)(O)OP(=O)(O)OP(=O)(O)O)[C@@H](O)[C@H]3O)c2n1 [2-MeSATP, 2-methylthio-adenosine triphosphate] | – | increased Ca^2+i with roughly equal potency | effect of removal of extracellular Ca2+ on the Ca2+ response to the agonist (neural progenitor cells): did not significantly decrease |
| Nc1ncnc2c1ncn2[C@@H]1O[C@H](COP(=O)(O)CP(=O)(O)O)[C@@H](O)[C@H]1O [AMPCP, α,β-methyl adenosine diphosphate] | potently enhanced | – | – |
| Nc1ncnc2c1ncn2[C@@H]1O[C@H](COP(=O)(O)CP(=O)(O)OP(=O)(O)O)[C@@H](O)[C@H]1O [αβATP] | – | failed to evoke Ca^2+ responses | – |
| O=c1ccn([C@@H]2O[C@H](COP(=O)(O)OP(=O)(O)OP(=O)(O)O)[C@@H](O)[C@H]2O)c(=O)[nH]1 [UTP, uridine triphosphate] | comparable effects | increased Ca^2+i with roughly equal potency | ATP release from neural spheres, bioluminescence imaging ([1]; 100 μM, neural spheres): frequent point-source bursts of light emission; ATP release evoked by purine receptor activation ([1]; neuroepithelial cells, first 2 days in vitro): evoked robust ATP release |
| Nc1ncnc2c1ncn2[C@@H](C=O)O[C@@H](C=O)COP(=O)(O)OP(=O)(O)OP(=O)(O)O [oxidized ATP, periodate oxidized adenosine 5′-triphosphate] | – | – | reduction of ATP-evoked Ca2+ responses (neural progenitor cells; 300 μM, 1 hr, p=0.4, Student's t test): did not significantly reduce |
| Nc1ncnc2c1ncn2[C@@H]1O[C@H](COP(=O)(O)OP(=O)(O)O)[C@@H](O)[C@H]1O [ADP, adenosine diphosphate] | comparable effects | increased Ca^2+i with roughly equal potency | – |
| Nc1ncnc2c1ncn2[C@@H]1O[C@H](COP(=O)(O)OP(=O)(O)OP(=O)(O)O)[C@@H](O)[C@H]1O [ATP, adenosine triphosphate] | increased proliferation in a dose-dependent manner | increased Ca^2+i with roughly equal potency | concentration at which proliferation peaked (neural stem cells): 100 µM; Ca2+ response (neural progenitor cells; 100 μM, cultures younger than 2 days in vitro): Transient increments in Ca^2+ were triggered; effect of removal of extracellular Ca2+ on the Ca2+ response to the agonist (neural progenitor cells): did not significantly decrease |
| CCNC(=O)[C@H]1O[C@@H](n2cnc3c(N)ncnc32)[C@H](O)[C@@H]1O [NECA] | failed to stimulate proliferation | – | – |
